# Marks after values point to notes of the source that are not given here.
# Columns and labels:
# Lipid peroxidation = Lipid peroxidation inhibition (method of Ohkawa); format: biochemical; conditions: for Lipid Peroxidation Inhibition, % Inhibition: 10 uM
# Angiogenesis in CAM = assay: Neovascularization on the CAM (Inhibition of Angiogenesis in CAM); format: in vivo, chicken; conditions: 30 ug; for inhibition in vivo at 0.03 mg: Gallus gallus
# Procedure: In vivo neovascularization was examined by the method previously described by Auerbach et al. (J. Dev. Biol. 41:391-394 (1974)). Ten-day old chicken embryos were purchased from Spafas, Inc. (Preston, Conn.) and were incubated at 37° C. with 55% relative humidity. In the dark, with the aid of a candling lamp, a small hole was punctured in the shell concealing the air sac with a hypodermic needle. A second hole was punctured in the shell on the broadside of the egg directly over an […] portion of the embryonic membrane, as observed during candling. An artificial air sac was created beneath the second hole by applying gentle vacuum to the first hole using a small rubber squeeze bulb. The vacuum caused the chorioallantoic membrane (CAM) to separate from the shell. A window, approximately 1.0 cm^2, was cut in the shell over the dropped CAM with the use of a small crafts grinding wheel (Dremel, Division of Emerson Electric Company Racine, Wis.). The window allowed direct access to the underlying CAM. A pro-angiogenic agent was added to induce new blood vessel branches on the CAM of 10-day old embryos. […] Louis, Mo.) in a solution (95% ethanol and water). The disks were subsequently air dried under sterile conditions. The disks were then suspended in PBS (Phosphate Buffered Saline) and placed on growing CAMs. […] For inducing angiogenesis, sterile filter disks were saturated with bFGF (1 μg/ml) (Life Technologies, Gaithersburg, Md.) or other pro-angiogenesis factors and control disks were saturated with PBS without Calcium and Magnesium. Control disks were saturated with PBS without Calcium and Magnesium. Using sterile forceps one filter/CAM was placed from the window. The window was sealed with Highland brand transparent tape. After 24-48 hr, 10-25 ul of test agent was injected intravenously or added topically into the CAM membrane. Eight-Ten eggs/treatment group were used. CAM tissue directly beneath filter disk was harvested from embryos treated 48 hours prior with compound or control. Tissues were washed three times with PBS. Sections were placed in a 35-mm petri dish (Nalge Nunc, Rochester, N.Y.) and examined under a SV6 stereomicroscope (Karl Zeiss, Thornwood, N.Y.) at 50× magnification. […] Digital images of CAM sections from Petri dish were collected using a 3-CCD color video camera system (Toshiba America, New York, N.Y.). These images were analyzed using Image-Pro Plus software (Media Cybernetics, Silver Spring, Md.). The number of branch points in blood vessels within the circular region superimposed to the area of a filter disk was counted for each section. […] Tissues were washed three times with PBS. Sections were placed in a 35-mm Petri dish (Nalge Nunc; Rochester, N.Y.) and were examined under a SV6 stereomicroscope (Karl Zeiss; Thornwood, N.Y.) at 50× magnification. Digital images of CAM sections adjacent to filters were collected using a 3-CCD color video camera system (Toshiba America; New York, N.Y.) and analyzed with the Image-Pro Plus software (Media Cybernetics; Silver Spring, Md.). The number of vessel branch points contained in a circular region equal to the area of a filter disk was counted for each section. Percent inhibition data are expressed as the quotient of the experimental value minus the negative control value divided by the difference between the positive control value and the negative control value. One image was counted in each CAM preparation, and findings from eight CAM preparations were analyzed for each treatment condition. In addition, each experiment was performed three times. The resulting angiogenesis index is the mean ±SEM (Standard Error of Measurement) of new branch points in each set of treatment. Statistical analysis of blood vessel branching patterns are performed by 1-way analysis of variance (ANOVA) comparing experimental with corresponding control groups.
# TNFα = assay: Measurement of LPS Induced-TNFα in THP-1 Cells; format: cell-based, human; conditions: Homo sapiens, THP-1
# [1] = tested on: Doxorubicin resistant SaOS2 cells; assay: Cancer cell viability (MTT) in the presence or absence of doxorubicin; format: cell-based, human; conditions: compound 50 ug/mL, 3 days
# [2] = tested on: angiogenesis in the CAM model; assay: Effect of TEMPOL-H on the anti-angiogenesis efficacy of ranibizumab in the CAM model; format: in vivo, chicken; conditions: for Mean % Inhibition +/− SEM, With TEMPOL-H (30 ug): P < 0.01; for Mean % Inhibition +/− SEM, Without TEMPOL-H: n = 6-8
# Procedure: FIGS. 3A and 3B depict the effect of TEMPOL-H (OT-674) on the anti-angiogenesis efficacy of ranibizumab (LUCENTIS™) in the CAM model. FIG. 3A depicts 30 ug of TEMPOL-H and 1 ng of ranibizumab. FIG. […]
# Ranibizumab (Genentech, South San Francisco, Calif.) is a monoclonal antibody fragment that binds to VEGF-A. It is anti-angiogenic and is approved to treat the wet type of age-related macular degeneration. The effect of the co-administration of TEMPOL-H (also referred to as OT-674) with Ranibizumab is depicted in Table 9. This effect is also depicted in FIGS. 3A and 3B.
# [3] = tested on: Human whole blood clot formation
# Procedure: TEG: Human whole blood (±drugs) was added to the cylindrical cuvette (“cup”). […] The cup oscillates 4°45′ ( 1/12 radian) in either direction every 4.5 seconds, with a 1-second mid-cycle stationary period, resulting in a frequency of 0.1 Hz and a maximal shear rate of 0.1 per second. The pin was suspended by a torsion wire that acts as a torque transducer. […] The torque experienced by the pin (relative to the oscillation of the cup) was plotted as a function of time (Forsythe, S. A. M. S. K. M. S. (2000): “Comparative In Vitro Efficacy of Different Platelet Glycoprotein IIb/IIIa Antagonists on Platelet-Mediated Clot Strength Induced by Tissue Factor With Use of Thromboelastography.” Arteriosclerosis, Thrombosis, and Vascular Biology 20: 1162).
# (Data represent mean ±SD, n=6 (blood form normal healthy volunteers), *P<0.01 as compared to control)
# [4] = TEG, human whole blood, Ranibizumab 1 ng/cup, Comp. 4 0 uM, *P<0.01 vs control
compound,measurement,setting,value
"COc1cc2c(cc1O)CC[C@@H]1[C@@H]2CC[C@]2(C)[C@@H](O)CC[C@@H]12 [2-methoxyestradiol, reference compound]","Lipid Peroxidation Inhibition, % Inhibition",Lipid peroxidation,92.3%
same,"Inhibition of Angiogenesis in CAM, % Inhibition",Angiogenesis in CAM,92.3%
"CC1(C)c2ccc(C(=O)O)cc2C(C)(C)N1O.Cl [Compound 15, 1,1,3,3-tetramethylisoindolin-2-hydroxyl-5-carboxylic acid hydrogen chloride]",inhibition at 10 µM,"TNFα; compound 10 uM, 5 ng/mL LPS, read-out: Mean Percent Inhibition of TNF-alpha using 5 ng/mL LPS",67 ± 7%
same,% Lipid Peroxidation inhibition (at 1 uM),Lipid peroxidation; 1 uM,88.0%
same,"Lipid Peroxidation Inhibition, % Inhibition",Lipid peroxidation,94.6%
same,inhibition in vivo at 0.03 mg,Angiogenesis in CAM,94.6%
same,melting point,,225.5 °C (dec.)
"CC1(C)COCC(C)(C)N1O.Cl [Compound 20, 3,3,5,5-1-hydroxy-tetramethylmorpholine hydrogen chloride]",IC50,TNFα; read-out: TNFalpha IC50,≥ 100 µM
same,"Lipid Peroxidation Inhibition, % Inhibition",Lipid peroxidation,90.2%
same,inhibition in vivo at 0.03 mg,Angiogenesis in CAM,90.2%
same,"Mean OD (×10^−3), MTT viability",[1]; Dox. 10^−6 M (+),107.5 ×10^−3
same,"Mean OD (×10^−3), MTT viability",[1]; absence of Dox. (−),515.50 ×10^−3
same,melting point,,184.6 °C (dec.)
Ranibizumab: a monoclonal antibody fragment that binds to VEGF-A,"Mean % Inhibition +/− SEM, With TEMPOL-H (30 ug)",[2]; VEGF + Ranibizumab (1 ug) with TEMPOL-H (30 ug),54 +/− 9* %
same,"Mean % Inhibition +/− SEM, Without TEMPOL-H",[2]; VEGF + Ranibizumab (1 ug),18 +/− 5%
same,"Mean % Inhibition +/− SEM, With TEMPOL-H (30 ug)",[2]; VEGF + Ranibizumab (10 ug) with TEMPOL-H (30 ug),69 +/− 6* %
same,"Mean % Inhibition +/− SEM, Without TEMPOL-H",[2]; VEGF + Ranibizumab (10 ug),33 +/− 6%
same,"Mean % Inhibition +/− SEM, With TEMPOL-H (30 ug)",[2]; VEGF + Ranibizumab (100 ug) with TEMPOL-H (30 ug),83 +/− 4* %
same,"Mean % Inhibition +/− SEM, Without TEMPOL-H",[2]; VEGF + Ranibizumab (100 ug),53 +/− 8%
same,MA in comparison to native blood,[3],approximately six times larger MA
same,initiation of clot formation in comparison to native blood,[3],approximately two to three fold faster
same,Clot Strength - MA,[3]; [4],28.5 ± 3.4* mm
same,Time to Clot Initiation R,[3]; [4],6.9 ± 1.4* min
